pIC50: −log10 of the molar value. Counter-ions that a name gives are not always drawn. Like-named read-outs stand apart in the source and are kept apart here.
How the values were obtained:
ncNOS = ncNOS (Homo sapiens, UniProt P29475); assay: biochemical
iNOS = iNOS (Homo sapiens, UniProt P35228); assay: NOS activity assay, iNOS (L-[3H]citrulline formation); type: biochemical
Experimental: (§1) Assay Protocol for NOS activity
(§2) NOS activity is measured as the formation of L-[2,3,4,5-^3 H]Citrullinefrom L-[2,3,4,5-^3 H]Arginine. The incubation buffer (100 μL) contained; 100 mM TES, pH 7.5, 5 μM FAD, 5 μM FMN, 10 μM BH4, 0.5 mM NADPH, 0.5 mM DTT, 0.5 mg/mL BSA, 2 mM CaCl2, 10 μg/mL calmodulin (bovine), 1 μM L-Arg, 0.2 μCi L-[2,3,4,5-^3 H]Arg, and the inhibitor in aqueous DMSO (max. 5%). The reaction is initiated by addition of enzyme. Incubations are performed at room temperature for 30 minutes and stopped by the addition of an equal volume of quenching buffer consisting of 200 mM sodium citrate, pH 2.2, 0.02% sodium azide. Reaction products are separated by passing through a cation exchange resin and quantitated as cpm by scintillation counting.

ecNOS = ecNOS (Homo sapiens, UniProt P29474); assay: NOS activity assay, ecNOS (L-[3H]citrulline formation); type: biochemical
Experimental: as §1, §2

ncNOS, sequence (P29475 whole entry): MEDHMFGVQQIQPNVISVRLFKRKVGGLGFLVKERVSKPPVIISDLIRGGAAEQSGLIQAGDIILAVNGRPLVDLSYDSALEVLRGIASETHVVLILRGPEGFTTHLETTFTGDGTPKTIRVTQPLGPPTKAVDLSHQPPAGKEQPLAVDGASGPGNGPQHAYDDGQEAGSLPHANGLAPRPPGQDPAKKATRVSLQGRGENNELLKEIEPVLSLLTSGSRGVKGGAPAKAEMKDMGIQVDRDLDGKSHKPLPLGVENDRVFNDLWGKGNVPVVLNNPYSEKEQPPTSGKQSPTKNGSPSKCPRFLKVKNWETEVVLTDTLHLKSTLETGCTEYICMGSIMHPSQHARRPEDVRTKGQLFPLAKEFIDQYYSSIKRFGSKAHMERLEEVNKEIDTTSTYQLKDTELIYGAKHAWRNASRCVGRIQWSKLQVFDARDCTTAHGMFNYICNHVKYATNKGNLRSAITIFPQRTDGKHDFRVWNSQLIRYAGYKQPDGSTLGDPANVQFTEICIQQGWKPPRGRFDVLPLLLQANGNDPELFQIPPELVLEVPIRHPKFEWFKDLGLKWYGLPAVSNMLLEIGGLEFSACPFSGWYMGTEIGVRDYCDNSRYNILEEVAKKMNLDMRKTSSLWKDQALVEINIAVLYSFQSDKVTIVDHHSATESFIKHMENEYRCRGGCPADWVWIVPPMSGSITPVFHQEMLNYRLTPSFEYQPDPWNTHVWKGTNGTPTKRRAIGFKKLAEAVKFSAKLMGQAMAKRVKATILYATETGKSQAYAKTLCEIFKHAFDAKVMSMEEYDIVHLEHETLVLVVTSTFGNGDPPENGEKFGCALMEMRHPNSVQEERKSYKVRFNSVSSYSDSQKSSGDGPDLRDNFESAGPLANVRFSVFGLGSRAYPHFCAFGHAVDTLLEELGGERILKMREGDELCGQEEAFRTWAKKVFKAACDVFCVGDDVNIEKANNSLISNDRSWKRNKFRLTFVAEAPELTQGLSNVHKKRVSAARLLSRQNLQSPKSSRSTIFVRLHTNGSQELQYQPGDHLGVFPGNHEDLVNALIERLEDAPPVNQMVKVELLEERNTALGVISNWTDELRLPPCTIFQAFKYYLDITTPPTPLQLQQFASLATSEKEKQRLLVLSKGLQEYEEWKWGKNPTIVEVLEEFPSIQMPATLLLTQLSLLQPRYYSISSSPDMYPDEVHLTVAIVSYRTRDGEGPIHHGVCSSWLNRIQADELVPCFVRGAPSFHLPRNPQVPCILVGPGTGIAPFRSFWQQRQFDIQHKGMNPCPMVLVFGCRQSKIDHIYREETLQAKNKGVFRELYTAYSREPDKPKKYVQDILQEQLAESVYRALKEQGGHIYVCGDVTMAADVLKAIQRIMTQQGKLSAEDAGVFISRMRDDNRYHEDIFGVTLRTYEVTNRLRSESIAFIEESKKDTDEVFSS

Row | SMILES | pIC50 (ncNOS; Table 4, read-out: IC50 ncNOS) | pIC50 (iNOS; Table 4, read-out: IC50 iNOS) | pIC50 (ecNOS; Table 4, read-out: IC50 ecNOS) | pIC50 (ncNOS; Table 5, read-out: IC50 ncNOS) | pIC50 (iNOS) | other results
1 | N=C(N)CCNC(=O)C1CCC(=N)N1 (centres unmarked) | > 5.00 | ≥ 5.00 | < 4.30 |  |  | 
2 | CC(=O)NCC1CNC(=N)CC1C (mixture of isomers) [Table 5: CH, H, CH3, CH2NHAc, H, H, H, cis/trans-5-Acetamidomethyl-2-imino-4-methyl-piperidine, acetic acid salt] |  |  |  | ≥ 4.30 |  | pIC50 (iNOS; Table 5, read-out: IC50 iNOS): ≥ 4.30; pIC50 (ecNOS; Table 5, read-out: IC50 ecNOS): < 4.30
3 | COC(=O)C1CNC(=N)CC1C (mixture of isomers) [Table 5: CH, H, CH3, CO2CH3, H, H, H, cis/trans-2-Imino-4-methyl-piperidine-5-carboxylic acid, methyl ester, acetic acid salt] |  |  |  | ≥ 4.30 |  | pIC50 (iNOS; Table 5, read-out: IC50 iNOS): ≥ 5.00; pIC50 (ecNOS; Table 5, read-out: IC50 ecNOS): < 4.30
4 | CC1CC(=N)NCC1C(=O)O (mixture of isomers) [Table 5: CH, H, CH3, CO2H, H, H, H, cis/trans-2-Imino-4-methyl-piperidine-5-carboxylic acid, acetic acid salt] |  |  |  | ≥ 5.00 |  | pIC50 (iNOS; Table 5, read-out: IC50 iNOS): ≥ 5.00; pIC50 (ecNOS; Table 5, read-out: IC50 ecNOS): ≥ 4.30
5 | CC(=O)NC1CNC(=N)CC1C (mixture of isomers) [Table 5: CH, H, CH3, NHAc, H, H, H, cis/trans-5-Acetamido-2-imino-4-methyl-piperidine, acetic acid salt] |  |  |  | < 4.30 |  | pIC50 (iNOS; Table 5, read-out: IC50 iNOS): ≥ 4.30; pIC50 (ecNOS; Table 5, read-out: IC50 ecNOS): < 4.30
6 | CC1CC(=N)NCC1C1CCCCC1 (mixture of isomers) [cis/trans-5-Cyclohexyl-2-imino-4-methyl-piperidine, acetic acid salt] |  |  |  | < 4.30 |  | pIC50 (iNOS; Table 5, read-out: IC50 iNOS): < 4.30; pIC50 (ecNOS; Table 5, read-out: IC50 ecNOS): < 4.30
7 | NC1=N[C@H]2CCCC[C@H]2CC1 (relative stereo) [Table 5: CH2, H, H, cis-(CH2)4, H, H, cis-Decahydro-2-iminoquinoline hydrochloride] |  |  |  | ≥ 6.00 |  | pIC50 (iNOS; Table 5, read-out: IC50 iNOS): ≥ 6.00; pIC50 (ecNOS; Table 5, read-out: IC50 ecNOS): ≥ 4.30
8 | N=C1CC[C@@H]2CCCC[C@H]2N1 (relative stereo) [Table 5: CH2, H, H, trans-(CH2)4, H, H, trans-Decahydro-2-iminoquinoline hydrochloride] |  |  |  | ≥ 6.00 |  | pIC50 (iNOS; Table 5, read-out: IC50 iNOS): ≥ 6.00; pIC50 (ecNOS; Table 5, read-out: IC50 ecNOS): ≥ 5.00
9 | CC[C@@H]1C(=N)NCC[C@@H]1C (relative stereo) [Table 5: CH, C2H5, CH3, H, H, H, H, cis-3-Ethyl-2-imino-4-methyl-piperidine, hydrochloride] |  |  |  | ≥ 5.00 |  | pIC50 (iNOS; Table 5, read-out: IC50 iNOS): ≥ 4.30; pIC50 (ecNOS; Table 5, read-out: IC50 ecNOS): ≥ 4.30
10 | C[C@@H]1CC(=N)N[C@H](C)C1 (relative stereo) [Table 5: CH, H, CH3, H, CH3, H, H, cis-4,6-Dimethyl-2-imino-piperidine, acetic acid salt] |  |  |  |  | ≥ 6.00 | pIC50 (ncNOS): ≥ 6.00; pIC50 (ecNOS): ≥ 6.00
11 | CCC[C@@H]1C(=N)NCC[C@@H]1C (relative stereo) [Table 5: CH, n-C3H7, CH3, H, H, H, H, cis-2-Imino-4-methyl-3-n-propyl-piperidine, hydrochloride] |  |  |  | ≥ 4.30 |  | pIC50 (iNOS; Table 5, read-out: IC50 iNOS): ≥ 4.30; pIC50 (ecNOS; Table 5, read-out: IC50 ecNOS): < 4.30
12 | N=C1CN[C@@H]2CCCC[C@@H]2N1 (relative stereo) [Table 5: N, H, H, cis-(CH2)4, H, H, 2-Imino-decahydro-cis-quinoxaline] |  |  |  | < 4.30 | ≥ 5.00 | pIC50 (ecNOS): < 4.30
13 | CC1CC(N)=NC1C (single isomer, unassigned) [Table 4: H, CH3, CH3(A), H, H] | ≥ 6.00 | ≥ 6.00 | ≥ 6.00 |  |  | 
14 | CC1CC(N)=NC1C (single isomer, unassigned) [Table 4: H, CH3, CH3(B), H, H] | ≥ 6.00 | ≥ 6.00 |  |  |  | 
15 | CCC1CN=C(N)C1C (centres unmarked) [Table 4: CH3, C2H5, H, H, H, 2-Imino-4-ethyl-3-methylpyrrolidine hydrochloride] | ≥ 5.00 | ≥ 6.00 | < 4.30 |  |  | 
16 | CC1CN=C(N)C1C (centres unmarked) [Table 4: CH3, CH3, H, H, H, 2-Imino-3,4-dimethylpyrrolidine hydrochloride] | ≥ 6.00 | ≥ 5.00 | ≥ 5.00 |  |  | 
17 | CC1CCN=C1N (centres unmarked) [Table 4: CH3, H, H, H, H, 2-Imino-3-methylpyrrolidine hydrochloride] |  | ≥ 5.00 | ≥ 5.00 |  |  | pIC50 (ncNOS): ≥ 6.00

Row | SMILES | pIC50 (ncNOS; Table 4, read-out: IC50 ncNOS) | pIC50 (iNOS; Table 4, read-out: IC50 iNOS) | pIC50 (ecNOS; Table 4, read-out: IC50 ecNOS) | pIC50 (ncNOS; Table 5, read-out: IC50 ncNOS) | pIC50 (iNOS) | other results
18 | CCC1CC(N)=NC1C (centres unmarked) [Table 4: H, C2H5, CH3, H, H, 2-Imino-4-ethyl-5-methylpyrrolidine hydrochloride] | ≥ 6.00 | ≥ 6.00 | ≥ 5.00 |  |  | 
19 | CCC1CN=C(N)C1 (centres unmarked) [Table 4: H, C2H5, H, H, H, 2-Imino-4-ethylpyrrolidine hydrochloride] | ≥ 5.00 | ≥ 6.00 | ≥ 4.30 |  |  | 
20 | CCC1N=C(N)CC1C (centres unmarked) [Table 4: H, CH3, C2H5, H, H, 2-Imino-5-ethyl-4-methylpyrrolidine hydrochloride] |  | ≥ 6.00 | ≥ 6.00 |  |  | pIC50 (ncNOS): ≥ 6.00
21 | CC1CC(N)=NC1C (centres unmarked) [Table 4: H, CH3, CH3, H, H, 2-Imino-4,5-dimethylpyrrolidine hydrochloride] | > 6.00 | ≥ 6.00 | > 6.00 |  |  | 
22 | CC1CN=C(N)C1 (centres unmarked) [Table 4: H, CH3, H, H, H, 2-Imino-4-methylpyrrolidine hydrochloride] |  |  |  |  | ≥ 5.00 | pIC50 (ncNOS): ≥ 6.00; pIC50 (ecNOS): ≥ 5.00
23 | CCCC1N=C(N)CC1C (centres unmarked) [Table 4: H, CH3, n-C3H7, H, H, 2-Imino-4-methyl-5-propylpyrrolidine hydrochloride] | ≥ 5.00 | ≥ 5.00 | ≥ 4.30 |  |  | 
24 | N=C1CC[C@@H]2CCCN12 [Table 4: H, H, (CH2)3, H, 5-(S)-2-Imino-1-aza-bicyclo(3.3.0)octane] | ≥ 5.00 | < 4.30 | ≥ 4.30 |  |  | 
25 | CC1(C)CCC(=N)N1 [Table 4: H, H, (CH3)2, H, H, 2-Imino-5,5-dimethylpyrrolidine hydrochloride] | ≥ 5.00 | ≥ 5.00 | ≥ 4.30 |  |  | 
26 | O=C(O)C1CCC(=NC2NCCS2)N1 (centres unmarked) [Table 4: H, H, CO2H, H, 2-thiazolidinyl] |  | ≥ 4.30 |  |  |  | 
27 | C[C@@H]1CCC(=N)NC1 [Table 5: CH2, H, H, (R)CH3, H, H, H, 5(R)-Methyl-2-iminopiperidine hydrochloride] |  |  |  |  | ≥ 6.00 | pIC50 (ecNOS): ≥ 5.00
28 | C[C@H]1CCC(=N)NC1 [Table 5: CH2, H, H, (S)CH3, H, H, H, 5(S)-Methyl-2-iminopiperidine hydrochloride] |  |  |  |  | ≥ 5.00 | pIC50 (ecNOS): ≥ 5.00
29 | CC1CCC(N)=NC1 (centres unmarked) [Table 5: CH2, H, H, CH3, H, H, H, 2-Imino-5-methylpiperidine hydrochloride] |  |  |  |  | ≥ 6.00 | pIC50 (ecNOS): ≥ 5.00
30 | N=C1CCCCN1 [Table 5: CH2, H, H, H, H, H, H, 2-Iminopiperidine hydrochloride] |  |  |  |  | ≥ 6.00 | pIC50 (ecNOS): ≥ 6.00
31 | C[C@@H]1CCNC(=N)C1 [Table 5: CH, H, (R)CH3, H, H, H, H, 4(R)-Methyl-2-iminopiperidine hydrochloride] |  |  |  |  | ≥ 6.00 | 
32 | C[C@H]1CCNC(=N)C1 [Table 5: CH, H, (S)CH3, H, H, H, H, 4(S)-Methyl-2-iminopiperidine hydrochloride] |  |  |  |  | ≥ 6.00 | 
33 | CC1CCN=C(N)C1 (centres unmarked) [Table 5: CH, H, CH3, H, H, H, H, 2-Imino-4-methylpiperidine hydrochloride] |  |  |  |  | ≥ 6.00 | 
